Results taken from patent US12679860B2, “C-terminal HSP90 inhibitors” (UNIVERSITY OF KANSAS, priority 2012, dated 2026).
Read-outs that look alike come from different tables or passages of the source.

Key:
[1] = system: embryonic dorsal root ganglion (DRG) sensory neuron cultures; test: Glucotoxicity assay: cell viability (calcein AM) of DRG sensory neurons under glucose-induced toxicity; type: cell-based, Sprague Dawley rat; settings: for EC50: 0.1-1000 nM novologue overnight, then 4 hrs of hyperglycemia, mean±SEM (n=3-8), read-out: EC50 for protection against glucose-induced toxicity
Procedure: DRG sensory neurons were incubated in the absence or presence of 0.1-1000 nM of the indicated novologue overnight and then subjected to 4 hrs of hyperglycemia.
The ganglia were sedimented at 1,000×g for 5 min, resuspended in growth media [phenol red free Neurobasal medium (Gibco, Grand Island, NY) containing 25 mM glucose, 1X B-27 additive, 50 ng/ml NGF (Harlan Bioscience, Indianapolis, IN), 4 mM glutamine, 100 U/mL penicillin and 100 μg/mL streptomycin] and triturated with a fire-polished glass pipette. The cells were cultured on collagen-coated (0.1 mg/mL collagen followed by overnight air drying in a laminar flow hood) black-walled 96-well plates (Corning Incorporated Corning, NY) at a seeding density of 2-3×10^4 cells per well. DRG neurons were re-fed the next day with fresh growth media containing 40 μM fluorodeoxyuridine and 10 μM cytosine β-D-arabinoside (both from Sigma Aldrich, St. Louis, MO) for 2 days to remove proliferating cells. Experiments were performed on DRG neurons on the third day in culture after placing the cells in fresh growth medium. […]
DRG neurons were incubated overnight with the test compounds in the presence of Neurobasal medium, 50 ng/ml NGF and antibiotics only. In order to monitor the efficiency of the compounds in protecting DRG neurons against glucotoxicity, Calcein AM (Invitrogen, Carlsbad, CA) was utilized to measure cell viability. Hydrolysis of calcein AM to a fluorescent product can only occur in live cells. Excess glucose was added to the cultures for 4 hrs and cell viability was measured by incubating the cells with 2 μM calcein AM for 30 min in the dark at 37° C. Fluorescence was then measured using a plate reader with excitation and emission wavelengths set to 485 nm and 520 nm, respectively. The arbitrary fluorescence readings were normalized to the total amount of protein from each respective well of the neuronal cultures. The protein concentrations in each well were determined using the DC protein assay (Bio-Rad). Significant differences in the efficacy of the novologues for increasing cell viability were determined using a Kruskal-Wallis non-parametric ANOVA and Dunn's post-test.

Hsp70 = test: Immunoblot analysis of induction of Hsp70 in DRG sensory neurons; type: cell-based, Sprague Dawley rat; settings: 24 hours incubation, then 4 hours of glucotoxic stress; Hsp70 normalized to β-actin
Procedure: DRG sensory neurons were incubated in the presence of DMSO (Cntrl) or 10-1000 nM of the indicated novologue overnight and then subjected to 4 hrs of hyperglycemia. The neurons were harvested and Hsp70 and β-actin levels were determined by immunoblot analysis. Band intensity was quantified using Image J, Hsp70 expression was normalized to the level of β-actin.
Since it was previously shown that the cytoprotective activity manifested by KU-32 requires Hsp70, the ability of 11b and 11n to induce Hsp70 was determined relative to KU-32. Increasing concentrations of KU-32, 11n, and 11b were incubated with DRG sensory neurons for 24 hours before the cells were subjected to 4 hours of glucotoxic stress. Hsp70 levels were examined by performing immunoblot analysis with the cellular lysates (FIG. 5). 11n and 11b induced Hsp70 levels at similar concentrations (10 nM) as those needed for neuroprotection.
DRG from embryonic day 15-18 Sprague Dawley rat pups were harvested into Leibovitz's L15 medium (L15) and dissociated with 0.25% trypsin for 30 min at 37° C. […]

[2] = system: myelinated cultures of sensory neurons prepared from Hsp70.1 and 70.3 double knockout mice; settings: sensory neurons from Hsp70.1 and 70.3 double knockout mice; cited from earlier work
diabetic mice = settings: weekly treatment, cited from earlier work

| SMILES | EC50 ([1]; Rattus norvegicus, Neuron) [nM] | viability at 1 µM ([1]; Rattus norvegicus, Neuron, Table 1, 1 μM of each novologue + 20 mM excess glucose, glucose + DMSO was 54% ± 2) [%] | concentration at which Hsp70 levels were induced (Hsp70) [nM] | EC50 [1] [nM] | prevention of neuregulin-induced demyelination [2] | reversal of clinical indices of DPN (diabetic mice; diabetic Hsp70 knockout mice) | sensory and motor nerve function (diabetic mice; diabetic wild type mice) |
| --- | --- | --- | --- | --- | --- | --- | --- |
| CO[C@@H]1[C@@H](O)[C@@H](O)C(Oc2ccc(CCNC(C)=O)c(-c3ccc4c(c3)OCO4)c2)OC1(C)C (stereo partly drawn) [11n, N-(2-(benzo[d][1,3]dioxol-5-yl)-4-(((3R,4S,5R)-3,4-dihydroxy-5-methoxy-6,6-dimethyltetrahydro-2H-pyran-2-yl)oxy)phenethyl)acetamide] | 18.4 ± 3.2 | 83 | 10 |  |  |  |  |
| CO[C@@H]1[C@@H](O)[C@@H](O)[C@H](Oc2ccc3cc(NC(C)=O)c(=O)oc3c2C)OC1(C)C [KU-32] |  |  |  | 240 ± 42.5 | ineffective | unable to reverse multiple clinical indices of DPN | restored normal sensory and motor nerve function |
